ChEMBL document CHEMBL1649532, “Trypanocidal activity of 8-methyl-5'-{[(Z)-4-aminobut-2-enyl]-(methylamino)}adenosine (Genz-644131), an adenosylmethionine decarboxylase inhibitor” (Antimicrob Agents Chemother, 2009)
Converted amounts (≈) assume the structure as drawn. The source made the active and inactive calls. No cut-off for these calls is given here.

What was measured:
[1] = system: Trypanosoma brucei rhodesiense; assay: Trypanocidal activity against Trypanosoma brucei rhodesiense KETRI1992 infected in mouse assessed as cure rate at 25 mg/kg, ip BID administered 24 hrs postinfection; assay type: functional; conditions: route intraperitoneal
[2] = system: Trypanosoma brucei rhodesiense; assay: Trypanocidal activity against Trypanosoma brucei rhodesiense KETRI243 infected in mouse assessed as protection against trypanosomal infection at 50 mg/kg, ip QD administered 24 hrs postinfection; assay type: functional, organism-based; set-up: dose 50 mg/kg
[3] = system: Trypanosoma brucei rhodesiense; assay: Trypanocidal activity against Trypanosoma brucei rhodesiense KETRI243 infected in mouse assessed as average survival time at 25 mg/kg, ip BID administered 24 hrs postinfection; assay type: functional; conditions: route intraperitoneal
[4] = system: Trypanosoma brucei brucei; assay: Trypanocidal activity against Trypanosoma brucei brucei 667 infected in mouse assessed as average day of relapse of trypanosomal infection at 100 mg/kg, ip BID for 7 days; assay type: functional; conditions: route intraperitoneal
[5] = system: Trypanosoma brucei brucei; assay: Trypanocidal activity against Trypanosoma brucei brucei EATRO after 48 hrs; assay type: functional, organism-based
[6] = system: Trypanosoma brucei brucei; assay: Trypanocidal activity against Trypanosoma brucei brucei 667 infected in mouse assessed as average day of relapse of trypanosomal infection at 100 mg/kg, ip BID for 14 days; assay type: functional; conditions: route intraperitoneal
[7] = system: Trypanosoma brucei brucei; assay: Trypanocidal activity against Trypanosoma brucei brucei EATRO infected in mouse assessed as mean survival time at 5 mg/kg, ip BID for 4 days; assay type: functional; conditions: route intraperitoneal
[8] = system: Trypanosoma brucei brucei; assay: Trypanocidal activity against Trypanosoma brucei brucei EATRO infected in mouse assessed as protection against trypanosomal infection at 25 mg/kg, ip BID for 4 days; assay type: functional, organism-based; set-up: dose 25 mg/kg
[9] = system: Trypanosoma brucei rhodesiense; assay: Trypanocidal activity against Trypanosoma brucei rhodesiense KETRI2002 infected in mouse assessed as protection against trypanosomal infection at 10 mg/kg, ip QD administered 24 hrs postinfection; assay type: functional, organism-based; set-up: dose 10 mg/kg
[10] = system: Trypanosoma brucei rhodesiense; assay: Trypanocidal activity against Trypanosoma brucei rhodesiense KETRI243 infected in mouse assessed as average survival time at 10 mg/kg, ip BID administered 24 hrs postinfection; assay type: functional; conditions: route intraperitoneal
[11] = system: Trypanosoma brucei brucei; assay: Trypanocidal activity against Trypanosoma brucei brucei 667 infected in mouse assessed as average day of relapse of trypanosomal infection at 10 mg/kg, ip BID for 7 days; assay type: functional; conditions: route intraperitoneal
[12] = system: Trypanosoma brucei rhodesiense; assay: Trypanocidal activity against Trypanosoma brucei rhodesiense KETRI2002 infected in mouse assessed as cure rate at 10 mg/kg, ip BID administered 24 hrs postinfection; assay type: functional; conditions: route intraperitoneal
[13] = system: Trypanosoma brucei brucei; assay: Trypanocidal activity against Trypanosoma brucei brucei EATRO infected in mouse assessed as mean survival time at 50 mg/kg, ip QD for 4 days; assay type: functional; conditions: route intraperitoneal
[14] = system: Trypanosoma brucei brucei; assay: Trypanocidal activity against Trypanosoma brucei brucei 667 infected in mouse assessed as average day of relapse of trypanosomal infection at 10 mg/kg, ip BID for 4 days; assay type: functional; conditions: route intraperitoneal
[15] = system: Trypanosoma brucei rhodesiense; assay: Trypanocidal activity against Trypanosoma brucei rhodesiense KETRI1992 infected in mouse assessed as protection against trypanosomal infection at 10 mg/kg, ip QD administered 24 hrs postinfection; assay type: functional, organism-based; set-up: dose 10 mg/kg
[16] = system: Trypanosoma brucei brucei; assay: Trypanocidal activity against Trypanosoma brucei brucei EATRO infected in mouse assessed as protection against trypanosomal infection at 25 mg/kg, ip QD for 4 days; assay type: functional, organism-based; set-up: dose 25 mg/kg
[17] = system: Trypanosoma brucei brucei; assay: Trypanocidal activity against Trypanosoma brucei brucei EATRO infected in mouse assessed as protection against trypanosomal infection at 2 mg/kg, ip BID for 4 days; assay type: functional, organism-based; set-up: dose 2 mg/kg
[18] = system: Trypanosoma brucei rhodesiense; assay: Trypanocidal activity against Trypanosoma brucei rhodesiense KETRI243 infected in mouse assessed as average survival time at 25 mg/kg, ip QD administered 24 hrs postinfection; assay type: functional; conditions: route intraperitoneal
[19] = system: Trypanosoma brucei rhodesiense; assay: Trypanocidal activity against Trypanosoma brucei rhodesiense KETRI1992 infected in mouse assessed as average survival time at 10 mg/kg, ip QD administered 24 hrs postinfection; assay type: functional; conditions: route intraperitoneal
[20] = system: Trypanosoma brucei brucei; assay: Trypanocidal activity against Trypanosoma brucei brucei EATRO infected in mouse assessed as protection against trypanosomal infection at 2 mg/kg, ip QD for 4 days; assay type: functional, organism-based; set-up: dose 2 mg/kg
[21] = system: Trypanosoma brucei rhodesiense; assay: Trypanocidal activity against Trypanosoma brucei rhodesiense KETRI1992 infected in mouse assessed as cure rate at 50 mg/kg, ip BID administered 24 hrs postinfection; assay type: functional; conditions: route intraperitoneal
[22] = system: Trypanosoma brucei rhodesiense; assay: Trypanocidal activity against Trypanosoma brucei rhodesiense KETRI243 infected in mouse assessed as protection against trypanosomal infection at 10 mg/kg, ip QD administered 24 hrs postinfection; assay type: functional, organism-based; set-up: dose 10 mg/kg
[23] = system: Trypanosoma brucei brucei; assay: Trypanocidal activity against Trypanosoma brucei brucei EATRO infected in mouse assessed as mean survival time at 2 mg/kg, ip QD for 4 days; assay type: functional; conditions: route intraperitoneal
[24] = system: Trypanosoma brucei brucei; assay: Trypanocidal activity against Trypanosoma brucei brucei EATRO infected in mouse assessed as mean survival time at 5 mg/kg, ip QD for 4 days; assay type: functional; conditions: route intraperitoneal
[25] = system: Trypanosoma brucei brucei; assay: Trypanocidal activity against Trypanosoma brucei brucei 667 infected in mouse assessed as average day of relapse of trypanosomal infection at 25 mg/kg, ip BID for 14 days; assay type: functional; conditions: route intraperitoneal
[26] = system: Trypanosoma brucei brucei; assay: Trypanocidal activity against Trypanosoma brucei brucei EATRO infected in mouse assessed as protection against trypanosomal infection at 5 mg/kg, ip BID for 4 days; assay type: functional, organism-based; set-up: dose 5 mg/kg
[27] = system: Trypanosoma brucei rhodesiense; assay: Trypanocidal activity against Trypanosoma brucei rhodesiense KETRI1992 infected in mouse assessed as protection against trypanosomal infection at 10 mg/kg, ip BID administered 24 hrs postinfection; assay type: functional, organism-based; set-up: dose 10 mg/kg
[28] = system: Trypanosoma brucei rhodesiense; assay: Trypanocidal activity against Trypanosoma brucei rhodesiense KETRI1992 infected in mouse assessed as average survival time at 50 mg/kg, ip QD administered 24 hrs postinfection; assay type: functional; conditions: route intraperitoneal
[29] = system: Trypanosoma brucei rhodesiense; assay: Trypanocidal activity against Trypanosoma brucei rhodesiense KETRI1992 infected in mouse assessed as protection against trypanosomal infection at 50 mg/kg, ip QD administered 24 hrs postinfection; assay type: functional, organism-based; set-up: dose 50 mg/kg
[30] = system: Trypanosoma brucei rhodesiense; assay: Trypanocidal activity against Trypanosoma brucei rhodesiense KETRI243 infected in mouse assessed as protection against trypanosomal infection at 10 mg/kg, ip BID administered 24 hrs postinfection; assay type: functional, organism-based; set-up: dose 10 mg/kg
[31] = system: Trypanosoma brucei rhodesiense; assay: Trypanocidal activity against Trypanosoma brucei rhodesiense KETRI2002 infected in mouse assessed as average survival time at 25 mg/kg, ip QD administered 24 hrs postinfection; assay type: functional; conditions: route intraperitoneal

Cc1nc2c(N)ncnc2n1[C@@H]1O[C@H](CN(C)C/C=C\CN)[C@@H](O)[C@H]1O was tested, and the Activity [1] was 60%, the Activity [2] was “inactive” and the MST [3] was 18.75 days. It also gave an MST [4] of 68.8 days, an IC50 [5] of 0.58 ng/mL (≈ 1.6 nM) and an MST [6] of 72 days. The MST [7] was >35 days, the Activity [8] was “Active” and the Activity [9] was “inactive”. For the same compound, the MST [10] was 14.8 days, the MST [11] was 53 days and the Activity [12] was 60%. For the same compound, the MST [13] was >35 days, the MST [14] was 36 days and the Activity [15] was “inactive”. The Activity [16] was “Active”, the Activity [17] was “Active” and the MST [18] was 14 days. The MST [19] was 16.6 days, the Activity [20] was “Active” and the Activity [21] was 100%. For the same compound, the Activity [22] was “inactive”, the MST [23] was >35 days and the MST [24] was >35 days. The MST [25] was 70.3 days, the Activity [26] was “Active” and the Activity [27] was “inactive”. For the same compound, the MST [28] was 20.2 days, the Activity [29] was “inactive” and the Activity [30] was “inactive”. It also gave an MST [31] of 20 days.
